Among the data in patent publication US6833372B2, “Non-peptide GnRH agents, Pharmaceutical compositions, and methods for their use” (Pfizer, Inc., priority 2002, dated 2004) are Ki values, retold here.

The target in the test is T1, human GnRH receptors (Homo sapiens, UniProt P30968).
T1 construct: expressed in transfected cells; host or cells: HEK 293 cells, stably transfected; membranes
T1 sequence (P30968 1-328): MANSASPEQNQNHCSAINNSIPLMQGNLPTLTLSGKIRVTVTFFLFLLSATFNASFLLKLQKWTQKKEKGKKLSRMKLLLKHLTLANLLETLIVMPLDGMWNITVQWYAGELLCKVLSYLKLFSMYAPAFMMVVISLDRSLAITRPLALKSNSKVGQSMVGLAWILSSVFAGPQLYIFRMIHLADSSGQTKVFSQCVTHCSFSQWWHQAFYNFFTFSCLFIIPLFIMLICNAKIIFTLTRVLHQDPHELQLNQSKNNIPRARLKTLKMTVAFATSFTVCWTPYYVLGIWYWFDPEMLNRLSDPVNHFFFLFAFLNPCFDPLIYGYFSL
Kind of test: Radioligand binding: inhibition of 125I-GnRH-A binding to human GnRH receptor membranes. The following applies: HEK 293 cell membranes. As for the experimental part:
HEK 293 cells stably transfected with mouse or human GnRH receptors as described above were grown in Dulbecco's high-glucose, modified Eagle's medium (DMEM) supplemented with 0.2% G418, 10% fetal bovine serum (FBS) and 100 U/mL penicillin/streptomycin. GH3 cells stably transfected with the rat GnRH receptor (GGH3) were provided by Dr. William Chin (Harvard Medical School, Boston, Mass.). These cells have been extensively characterized previously (Kaiser et al., 1997). The cells were grown in low glucose DMEM containing: 100U/mL penicillin/streptomycin, 0.6% G418 and 10% heat-inactivated FBS.
HEK 293 cells containing mouse or human receptors, or rat pituitaries (Pel Freez Biologicals, Rogers, Ark.) were homogenized in buffer A containing: 50 mM Tris (pH 7.4), 0.32 M sucrose, 2 mM EGTA, 1 mM PMSF, 5 μg/ml aprotinen, 5 μg/ml Pepstatin A, and 1 μg/ml leupeptin. Homogenized cells were centrifuged at 4° C. at 20,000×g for 25 minutes, re-suspended in buffer A and re-centrifuged at 4° C. at 20,000×g for an additional 25 minutes. Total membrane protein was determined with a BCA kit (Pierce, Rockford, Ill.). Membranes were stored at −70° C. at a final membrane protein concentration of approximately 5 mg/ml.
The radioiodinated agonist analog of GnRH, [des-Gly^10,D-Ala^6]GnRH ethylamide (^125I-GnRH-A), was used as the radioligand. […] The reaction mixture was vortexed and incubated for 1 minute at room temperature. After one minute, the mixture was vortexed and allowed to incubate for an additional minute. 2 ml of 0.5 M acetic acid/1% BSA was added to the reaction tube and the mixture was added to a C18 Sep-Pak cartridge. The cartridge was washed with subsequent washes of 5 ml H2O and 5 ml 0.5 M acetic acid and then eluted with 5×1 ml of 60% CH3CN/40% 0.5 M acetic acid. The eluate was diluted with 3× volume of HPLC buffer A (0.1% TFA in H2O) and loaded onto a C18 column. The iodinated product was eluted over 20-25 min with a gradient of 25-100% CH3CN containing 0.1% TFA. The radioactive fractions (750 μl/fraction) were collected into clean polypropylene tubes containing 100 μl of 10% BSA. Fractions were assessed for biological activity by radioligand binding. Specific activity of the radioligand was approximately 2200 Ci/mmol.
Membranes were diluted to 0.01-0.5 mg/ml (depending upon the species of receptor) with assay buffer containing 50 mM HEPES (pH 7.4), 1 mM EDTA, 2.5 mM MgCl2, and 0.1% BSA. Membranes (diluted to utilize similar receptor numbers between assays) were incubated with approximately 0.04-0.06 nM ^125I-GnRH-A in the presence or absence of competing agents (0.1-10,000 nM) in a total volume of 200 μl in 96-well polypropylene plates for 1 hour at room temperature. Assays were stopped by rapid filtration onto 96-well GF/C filters soaked in 0.1% polyethylenimine (PEI) utilizing a Packard 96-well cell harvester. Filters were washed three times with ice-cold PBS (50 mM NaPO4, 0.9% NaCl, 2 mM MgCl2, and 0.02% NaN3, pH 7.4). 35 μl of scintillation cocktail was added to each filter well and filters were counted on a Packard Topcount. Control dose-response curves were generated to GnRH (0.1 nM-100 nM) in each competition binding experiment. Ki values were calculated from IC50 values according to Cheng et al., Biochemical Pharmacol. 22: 3099-3108, 1973. [formula]
`COc1nc(N2CCC[C@H]2C(=O)OC(C)(C)C)nc(OC)c1NC(=O)c1ccc(Cc2cc3c(cc2C)C(C)(C)OC3(C)C)o1` [Example D24, tert-Butyl 1-[4,6-dimethoxy-5-({5-[(1,1,3,3,6-pentamethyl-1,3-dihydro-2-benzofuran-5-yl)methyl]-2-furoyl}amino)pyrimidin-2-yl]prolinate]: the Ki (as a rule, a dissociation constant, usually derived from enzyme kinetics or from competition with a known ligand) was determined as 360 nM.

`C=C(C)CN(Cc1ccco1)c1nc(OC)c(NC(=O)c2ccc(Cc3cc4c(cc3C)C(C)(C)OC4(C)C)o2)c(OC)n1` [Example D25, N-{2-[(2-Furylmethyl)(2-methylprop-2-enyl)amino]-4,6-dimethoxypyrimidin-5-yl}-5-[(1,1,3,3,6-pentamethyl-1,3-dihydro-2-benzofuran-5-yl)methyl]-2-furamide] gave a Ki of 460 nM.

For the compound `COc1nc(N2CCN(CCC#N)CC2)nc(OC)c1NC(=O)c1ccc(Cc2cc3c(cc2C)C(C)(C)OC3(C)C)o1` [Example D26, N-{2-[4-(2-cyanoethyl)piperazin-1-yl]-4,6-dimethoxy-pyrimidin-5-yl}-5-[(1,1,3,3,6-pentamethyl-1,3-dihydro-2-benzofuran-5-yl)methyl]-2-furamide], the Ki stood at 84 nM.

`COc1nc(N(C)CC(=O)O)nc(OC)c1NC(=O)c1ccc(Cc2cc3c(cc2C)C(C)(C)OC3(C)C)o1` [Example D27, N-[4,6-Dimethoxy-5-({5-[(1,1,3,3,6-pentamethyl-1,3-dihydro-2-benzofuran-5-yl)methyl]-2-furoyl}amino)pyrimidin-2-yl]-N-methylglycine] displayed an inhibitory constant (Ki) of 250 nM.

As for `COc1nc(NCc2ccccc2Br)nc(OC)c1NC(=O)c1ccc(Cc2cc3c(cc2C)C(C)(C)OC3(C)C)o1` [Example D28, N-{2-[(2-Bromobenzyl)amino]-4,6-dimethoxypyrimidin-5-yl}-5-[(1,1,3,3,6-pentamethyl-1,3-dihydro-2-benzofuran-5-yl)methyl]-2-furamide], the Ki came out at 30 nM.

On to `COc1nc(N(C)Cc2cccc(C)n2)nc(OC)c1NC(=O)c1ccc(Cc2cc3c(cc2C)C(C)(C)OC3(C)C)o1` [Example D29, N-(4,6-Dimethoxy-2-{methyl[(6-methylpyridin-2-yl)methyl]amino}pyrimidin-5-yl)-5-[(1,1,3,3,6-pentamethyl-1,3-dihydro-2-benzofuran-5-yl)methyl]-2-furamide], for which the Ki was found to be 54 nM.

In turn, `COc1nc(N2CCN(CC(=O)N(C)C)CC2)nc(OC)c1NC(=O)c1ccc(Cc2cc3c(cc2C)C(C)(C)OC3(C)C)o1` [Example D30, N-(2-{4-[2-(Dimethylamino)-2-oxoethyl]piperazin-1-yl}4,6-dimethoxypyrimidin-5-yl)-5-[(1,1,3,3,6-pentamethyl-1,3-dihydro-2-benzofuran-5-yl)methyl]-2-furamide] displayed a Ki of 46 nM.

With `COc1nc(NC2CCCCC2C2CCCCC2)nc(OC)c1NC(=O)c1ccc(Cc2cc3c(cc2C)C(C)(C)OC3(C)C)o1` (stereo not drawn) [Example D31, N-{2-[1,1′-Bi(cyclohexyl)-2-ylamino]4,6-dimethoxy-pyrimidin-5-yl}-5-[(1,1,3,3,6-pentamethyl-1,3-dihydro-2-benzofuran-2-benofuran-5-yl)methyl]-2-furamide], the Ki is 6700 nM. This Ki is about 150-fold higher than that of the compound before.

`COc1nc(N[C@@H]2CCC[C@H]2OCc2ccccc2)nc(OC)c1NC(=O)c1ccc(Cc2cc3c(cc2C)C(C)(C)OC3(C)C)o1` [Example D32, N-(2-{[(1R,2R)-2-(Benzyloxy)cyclopentyl]amino}-4,6-dimethoxypyrimidin-5-yl)-5-[(1,1,3,3,6-pentamethyl-1,3-dihydro-2-benzofuran-5-yl)methyl]-2-furamide] displayed a Ki of 22 nM.

Take `COc1nc(NC2CCN(Cc3ccccc3)CC2)nc(OC)c1NC(=O)c1ccc(Cc2cc3c(cc2C)C(C)(C)OC3(C)C)o1` [Example D33, N-{2-[(1-Benzylpiperidin-4-yl)amino]-4,6-dimethoxypyrimidin-5-yl}-5-[(1,1,3,3,6-pentamethyl-1,3-dihydro-2-benzofuran-5-yl)methyl]-2-furamide]: the Ki was found to be 46 nM. This Ki is about 2.1-fold higher than that of the compound before.

As to `COc1cc(CNc2nc(OC)c(NC(=O)c3ccc(Cc4cc5c(cc4C)C(C)(C)OC5(C)C)o3)c(OC)n2)cc(OC)c1OC` [Example D34, N-{4,6-Dimethoxy-2-[(3,4,5-trimethoxybenzyl)amino]-pyrimidin-5-yl}-5-[(1,1,3,3,6-pentamethyl-1,3-dihydro-2-benzofuran-5-yl)methyl]-2-furamide], the affinity corresponds to a Ki of 14 nM.

In the case of `COc1nc(NCCNC2C3CC4CC(C3)CC2C4)nc(OC)c1NC(=O)c1ccc(Cc2cc3c(cc2C)C(C)(C)OC3(C)C)o1` (stereo not drawn) [Example D35, N-(2-{[2-(2-Adamantylamino)ethyl]amino}-4,6-dimethoxypyrimidin-5-yl)-5-[(1,1,3,3,6-pentamethyl-1,3-dihydro-2-benzofuran-5-yl)methyl]-2-furamide], the Ki worked out at 2.6 nM.

In the case of `COc1nc(NCc2ccc(C(F)(F)F)nc2)nc(OC)c1NC(=O)c1ccc(Cc2cc3c(cc2C)C(C)(C)OC3(C)C)o1` [Example D36, N-[4,6-Dimethoxy-2-({[6-(trifluoromethyl)pyridin-3-yl]-methyl}amino)pyrimidin-5-yl]-5-[(1,1,3,3,6-pentamethyl-1,3-dihydro-2-benzofuran-5-yl)methyl]-2-furamide], the Ki was 87 nM.

`CCCCN(CCC#N)c1nc(OC)c(NC(=O)c2ccc(Cc3cc4c(cc3C)C(C)(C)OC4(C)C)o2)c(OC)n1` [Example D37, N-{2-[Butyl(2-cyanoethyl)amino]-4,6-dimethoxypyrimidin-5-yl}-5-[(1,1,3,3,6-pentamethyl-1,3-dihydro-2-benzofuran-5-yl)methyl]-2-furamide] showed a Ki of 41 nM.

In turn, `COc1nc(N2CCN(c3ccccc3F)CC2)nc(OC)c1NC(=O)c1ccc(Cc2cc3c(cc2C)C(C)(C)OC3(C)C)o1` [Example D43, N-{2-[4-(2-Fluorophenyl)piperazin-1-yl]-4,6-dimethoxypyrimidin-5-yl}-5-[(1,1,3,3,6-pentamethyl-1,3-dihydro-2-benzofuran-5-yl)methyl]-2-furamide] displayed a Ki of 160 nM.

For `COc1nc(N(Cc2ccccn2)Cc2ccccn2)nc(OC)c1NC(=O)c1ccc(Cc2cc3c(cc2C)C(C)(C)OC3(C)C)o1` [Example D45, N-{2-[Bis(pyridin-2-ylmethyl)amino]-4,6-dimethoxy-pyrimidin-5-yl}-5-[(1,1,3,3,6-pentamethyl-1,3-dihydro-2-benzofuran-5-yl)methyl]-2-furamide], the Ki is 200 nM.

As for `COc1nc(N2CCN(CCN3CCOCC3)CC2)nc(OC)c1NC(=O)c1ccc(Cc2cc3c(cc2C)C(C)(C)OC3(C)C)o1` [Example D46, N-{4,6-Dimethoxy-2-(4-(2-morpholin-4-ylethyl)piperazin-1-yl]pyrimidin-5-yl}-5-[(1,1,3,3,6-pentamethyl-1,3-dihydro-2-benzofuran-5-yl)methyl]-2-furamide], the inhibition constant (Ki) worked out at 19 nM. Compared with the last compound, the Ki is about 11-fold lower.

On to `COc1nc(N(CCN(C)C)Cc2ccc(F)cc2)nc(OC)c1NC(=O)c1ccc(Cc2cc3c(cc2C)C(C)(C)OC3(C)C)o1` [Example D47, N-{2-[[2-(Dimethylamino)ethyl](4-fluorobenzyl)amino]-4,6-dimethoxypyrimidin-5-yl}-5-[(1,1,3,3,6-pentamethyl-1,3-dihydro-2-benzofuran-5-yl)methyl]-2-furamide], for which the Ki came out at 79 nM.
